Reference: ChEMBL document CHEMBL5357082, “Identification and Optimization of Small Molecule Pyrazolopyrimidine TLR7 Agonists for Applications in Immuno-oncology” (ACS Med Chem Lett, 2024)
Activity calls are given as the source filed them. The rule behind the calls is not given here.

Legend:
[1] = Cytotoxicity against PHA-activated T-cells (unknown origin) assessed as inhibition of IL-2 induced cell proliferation measured after 72 hrs by MTS assay; format: toxicity, cell-based
[2] = target: T1, Toll-like receptor 7 (Mus musculus, UniProt P58681); test: (§1) Agonist activity at mouse TLR7
T1 sequence (P58681 whole entry): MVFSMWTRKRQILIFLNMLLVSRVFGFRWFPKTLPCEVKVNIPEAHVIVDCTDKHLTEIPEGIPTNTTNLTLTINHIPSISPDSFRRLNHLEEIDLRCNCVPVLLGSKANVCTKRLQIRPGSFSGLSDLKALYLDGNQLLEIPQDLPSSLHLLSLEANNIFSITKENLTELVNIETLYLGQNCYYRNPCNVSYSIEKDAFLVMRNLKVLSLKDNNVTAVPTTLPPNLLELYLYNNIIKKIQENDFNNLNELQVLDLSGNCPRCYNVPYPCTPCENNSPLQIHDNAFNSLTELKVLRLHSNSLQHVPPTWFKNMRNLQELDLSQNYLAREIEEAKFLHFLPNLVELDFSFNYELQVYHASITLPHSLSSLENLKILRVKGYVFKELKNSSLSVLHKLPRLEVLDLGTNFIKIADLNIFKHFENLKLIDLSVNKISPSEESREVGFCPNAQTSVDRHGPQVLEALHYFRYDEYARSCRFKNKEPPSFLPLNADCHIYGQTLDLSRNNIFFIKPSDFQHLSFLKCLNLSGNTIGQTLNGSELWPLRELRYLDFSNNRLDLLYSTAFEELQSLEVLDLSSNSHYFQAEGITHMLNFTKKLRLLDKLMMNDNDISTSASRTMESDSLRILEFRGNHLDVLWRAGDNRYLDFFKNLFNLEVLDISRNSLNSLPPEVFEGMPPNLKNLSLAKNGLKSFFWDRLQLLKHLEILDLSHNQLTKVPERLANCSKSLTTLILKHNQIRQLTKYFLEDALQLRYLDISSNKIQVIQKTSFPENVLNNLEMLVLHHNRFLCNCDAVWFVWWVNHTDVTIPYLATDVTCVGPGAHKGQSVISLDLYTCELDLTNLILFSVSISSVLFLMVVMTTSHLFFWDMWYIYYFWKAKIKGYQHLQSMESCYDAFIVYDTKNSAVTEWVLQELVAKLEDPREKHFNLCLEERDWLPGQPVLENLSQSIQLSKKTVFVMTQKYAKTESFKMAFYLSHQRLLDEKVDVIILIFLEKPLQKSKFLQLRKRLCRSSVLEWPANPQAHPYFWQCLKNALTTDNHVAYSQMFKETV

[3] = target: T2, Cytochrome P450 3A4 (Homo sapiens, UniProt P08684); test: Inhibition of CYP3A4 (unknown origin) using BFC as substrate; format: ADME
[4] = target: Cytochrome P450 2D6 (Homo sapiens, UniProt P10635); test: Inhibition of CYP2D6 (unknown origin); format: ADME
[5] = target: Cytochrome P450 2C19 (Homo sapiens, UniProt P33261); test: Inhibition of CYP2C19 (unknown origin); format: ADME
[6] = target: T3, Cytochrome P450 2C8 (Homo sapiens, UniProt P10632); test: Inhibition of CYP2C8 (unknown origin); format: ADME
T3 sequence (P10632 whole entry): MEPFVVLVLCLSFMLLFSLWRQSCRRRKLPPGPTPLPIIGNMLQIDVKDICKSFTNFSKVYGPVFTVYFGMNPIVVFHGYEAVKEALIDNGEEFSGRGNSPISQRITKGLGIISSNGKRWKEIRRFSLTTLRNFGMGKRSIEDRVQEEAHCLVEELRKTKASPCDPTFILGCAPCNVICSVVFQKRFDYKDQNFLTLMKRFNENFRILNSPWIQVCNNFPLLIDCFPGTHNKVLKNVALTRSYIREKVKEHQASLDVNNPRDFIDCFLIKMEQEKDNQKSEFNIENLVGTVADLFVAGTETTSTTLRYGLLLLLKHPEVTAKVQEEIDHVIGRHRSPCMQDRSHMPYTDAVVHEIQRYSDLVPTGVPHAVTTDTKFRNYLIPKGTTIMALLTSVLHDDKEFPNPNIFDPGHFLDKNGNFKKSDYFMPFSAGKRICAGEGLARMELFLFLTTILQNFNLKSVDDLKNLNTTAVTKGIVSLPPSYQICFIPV

[7] = Metabolic stability in mouse liver microsomes assessed as compound remaining at 0.5 uM incubated for 10 mins in presence of NADPH by UV absorbance based assay; format: ADME, Microsome; details: read-out: Stability
[8] = target: T2, Cytochrome P450 3A4; test: Inhibition of CYP3A4 (unknown origin) using BFC as substrate preincubated with compound followed by substrate addition at 30 mins; format: ADME
[9] = target: Voltage-gated inwardly rectifying potassium channel KCNH2 (Homo sapiens, UniProt Q12809); test: Inhibition of hERG; format: toxicity; details: for inhibition (INH): human
[10] = Metabolic stability in human liver microsomes assessed as compound remaining at 0.5 uM incubated for 10 mins in presence of NADPH by UV absorbance based assay; format: ADME, Microsome; details: read-out: Stability
[11] = target: T4, Cytochrome P450 1A2 (Homo sapiens, UniProt P05177); test: Inhibition of CYP1A2 (unknown origin); format: ADME
T4 sequence (P05177 whole entry): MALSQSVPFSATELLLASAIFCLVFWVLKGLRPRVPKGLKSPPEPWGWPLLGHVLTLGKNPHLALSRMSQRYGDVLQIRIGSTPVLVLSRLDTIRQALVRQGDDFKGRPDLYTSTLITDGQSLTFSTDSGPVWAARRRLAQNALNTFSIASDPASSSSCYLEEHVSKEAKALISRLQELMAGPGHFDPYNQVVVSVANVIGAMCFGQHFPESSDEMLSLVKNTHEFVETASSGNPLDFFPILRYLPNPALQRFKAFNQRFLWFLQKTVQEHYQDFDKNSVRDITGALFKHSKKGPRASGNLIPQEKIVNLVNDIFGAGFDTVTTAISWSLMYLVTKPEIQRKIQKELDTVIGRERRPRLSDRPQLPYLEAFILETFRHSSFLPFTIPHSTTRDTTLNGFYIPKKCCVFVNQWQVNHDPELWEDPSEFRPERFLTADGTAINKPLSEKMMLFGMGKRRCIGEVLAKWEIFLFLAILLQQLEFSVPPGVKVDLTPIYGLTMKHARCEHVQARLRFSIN

[12] = target: T2, Cytochrome P450 3A4; test: Inhibition of CYP3A4 (unknown origin) using BFC as substrate preincubated with compound followed by substrate addition at 5 mins; format: ADME
[13] = target: Cytochrome P450 2C9 (Homo sapiens, UniProt P11712); test: Inhibition of CYP2C9 (unknown origin); format: ADME
[14] = target: T5, Toll-like receptor 7 (Homo sapiens, UniProt Q9NYK1); test: Agonist activity at human TLR7 in HEK-Blue hTLR7 cells harboring SEAP reporter transgene incubated for 18 hrs by quanti-blue reagent based assay; format: cell-based
T5 sequence (Q9NYK1 whole entry): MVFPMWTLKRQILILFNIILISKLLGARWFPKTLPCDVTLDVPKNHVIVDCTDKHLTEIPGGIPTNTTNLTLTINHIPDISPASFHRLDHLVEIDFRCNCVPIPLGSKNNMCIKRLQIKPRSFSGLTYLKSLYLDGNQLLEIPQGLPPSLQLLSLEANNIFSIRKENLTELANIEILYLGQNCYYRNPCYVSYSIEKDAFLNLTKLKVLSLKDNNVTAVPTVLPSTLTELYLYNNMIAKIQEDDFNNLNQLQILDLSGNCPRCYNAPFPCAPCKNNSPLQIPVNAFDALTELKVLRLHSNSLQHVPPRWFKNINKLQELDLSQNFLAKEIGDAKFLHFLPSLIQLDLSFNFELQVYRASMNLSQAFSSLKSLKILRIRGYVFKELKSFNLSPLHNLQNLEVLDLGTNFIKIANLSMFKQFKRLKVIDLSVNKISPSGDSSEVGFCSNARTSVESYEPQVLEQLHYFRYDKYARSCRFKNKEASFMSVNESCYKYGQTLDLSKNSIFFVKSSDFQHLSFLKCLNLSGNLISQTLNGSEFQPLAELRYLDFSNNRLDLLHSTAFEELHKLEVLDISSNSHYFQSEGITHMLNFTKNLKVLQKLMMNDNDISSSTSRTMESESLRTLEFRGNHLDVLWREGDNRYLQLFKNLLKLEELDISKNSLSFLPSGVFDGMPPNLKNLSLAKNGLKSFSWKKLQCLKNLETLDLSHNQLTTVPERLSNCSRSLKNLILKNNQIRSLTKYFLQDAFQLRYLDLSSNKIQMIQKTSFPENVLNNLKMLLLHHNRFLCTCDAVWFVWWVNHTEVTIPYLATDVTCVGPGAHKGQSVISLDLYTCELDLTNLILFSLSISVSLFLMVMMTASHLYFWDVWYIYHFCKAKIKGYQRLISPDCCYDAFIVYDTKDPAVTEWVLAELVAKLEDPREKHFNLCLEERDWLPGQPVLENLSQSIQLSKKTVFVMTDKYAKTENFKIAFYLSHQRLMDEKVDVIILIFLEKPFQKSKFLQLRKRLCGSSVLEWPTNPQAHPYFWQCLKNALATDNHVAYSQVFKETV

[15] = target: T6, Toll-like receptor 7 (Mus musculus) (UniProt P58681); test: as §1
T6 sequence (whole entry): T1 sequence (P58681 whole entry)

Sequence of Cytochrome P450 2C19 (P33261 whole entry): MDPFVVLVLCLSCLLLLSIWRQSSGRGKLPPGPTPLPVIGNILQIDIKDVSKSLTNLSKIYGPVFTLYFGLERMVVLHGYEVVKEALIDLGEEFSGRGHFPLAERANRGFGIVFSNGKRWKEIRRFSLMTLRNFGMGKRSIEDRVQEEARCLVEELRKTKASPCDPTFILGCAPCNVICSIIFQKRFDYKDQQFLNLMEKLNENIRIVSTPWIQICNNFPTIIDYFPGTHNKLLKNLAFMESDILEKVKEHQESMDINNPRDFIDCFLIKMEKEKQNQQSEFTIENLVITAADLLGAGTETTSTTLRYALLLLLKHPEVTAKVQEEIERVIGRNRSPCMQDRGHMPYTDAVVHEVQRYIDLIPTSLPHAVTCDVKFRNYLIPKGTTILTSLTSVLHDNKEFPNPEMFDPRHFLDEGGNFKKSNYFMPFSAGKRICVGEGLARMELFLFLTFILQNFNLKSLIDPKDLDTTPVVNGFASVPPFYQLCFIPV
Sequence of Voltage-gated inwardly rectifying potassium channel KCNH2 (Q12809 whole entry): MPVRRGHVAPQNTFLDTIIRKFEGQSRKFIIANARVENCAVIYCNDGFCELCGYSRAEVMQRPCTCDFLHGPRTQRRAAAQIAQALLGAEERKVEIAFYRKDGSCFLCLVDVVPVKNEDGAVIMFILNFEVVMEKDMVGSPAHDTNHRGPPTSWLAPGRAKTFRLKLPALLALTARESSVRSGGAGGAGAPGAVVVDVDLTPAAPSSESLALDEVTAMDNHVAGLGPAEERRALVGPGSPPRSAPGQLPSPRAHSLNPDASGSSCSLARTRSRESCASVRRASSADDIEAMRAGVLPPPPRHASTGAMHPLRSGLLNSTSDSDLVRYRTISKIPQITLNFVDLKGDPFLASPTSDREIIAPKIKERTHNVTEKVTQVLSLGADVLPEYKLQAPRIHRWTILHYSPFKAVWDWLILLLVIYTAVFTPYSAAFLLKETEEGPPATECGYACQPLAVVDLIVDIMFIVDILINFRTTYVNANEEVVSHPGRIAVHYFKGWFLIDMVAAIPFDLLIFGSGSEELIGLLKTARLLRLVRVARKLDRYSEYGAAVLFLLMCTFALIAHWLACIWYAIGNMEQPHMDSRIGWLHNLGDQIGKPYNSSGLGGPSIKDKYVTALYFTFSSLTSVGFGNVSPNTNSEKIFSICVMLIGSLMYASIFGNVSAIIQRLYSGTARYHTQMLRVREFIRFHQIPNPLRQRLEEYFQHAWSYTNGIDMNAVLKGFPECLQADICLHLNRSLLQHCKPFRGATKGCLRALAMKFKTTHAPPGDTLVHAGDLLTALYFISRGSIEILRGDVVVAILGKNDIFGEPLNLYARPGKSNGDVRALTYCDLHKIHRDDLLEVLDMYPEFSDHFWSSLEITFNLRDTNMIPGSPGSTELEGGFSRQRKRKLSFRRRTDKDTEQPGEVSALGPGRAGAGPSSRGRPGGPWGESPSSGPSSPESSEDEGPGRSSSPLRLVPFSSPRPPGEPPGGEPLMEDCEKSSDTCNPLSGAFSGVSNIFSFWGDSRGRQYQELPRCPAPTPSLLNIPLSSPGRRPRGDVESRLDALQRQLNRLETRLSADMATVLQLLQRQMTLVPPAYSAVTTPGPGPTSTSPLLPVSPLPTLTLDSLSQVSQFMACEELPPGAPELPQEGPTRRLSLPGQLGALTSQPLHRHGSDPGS
Sequence of Cytochrome P450 2D6 (P10635 whole entry): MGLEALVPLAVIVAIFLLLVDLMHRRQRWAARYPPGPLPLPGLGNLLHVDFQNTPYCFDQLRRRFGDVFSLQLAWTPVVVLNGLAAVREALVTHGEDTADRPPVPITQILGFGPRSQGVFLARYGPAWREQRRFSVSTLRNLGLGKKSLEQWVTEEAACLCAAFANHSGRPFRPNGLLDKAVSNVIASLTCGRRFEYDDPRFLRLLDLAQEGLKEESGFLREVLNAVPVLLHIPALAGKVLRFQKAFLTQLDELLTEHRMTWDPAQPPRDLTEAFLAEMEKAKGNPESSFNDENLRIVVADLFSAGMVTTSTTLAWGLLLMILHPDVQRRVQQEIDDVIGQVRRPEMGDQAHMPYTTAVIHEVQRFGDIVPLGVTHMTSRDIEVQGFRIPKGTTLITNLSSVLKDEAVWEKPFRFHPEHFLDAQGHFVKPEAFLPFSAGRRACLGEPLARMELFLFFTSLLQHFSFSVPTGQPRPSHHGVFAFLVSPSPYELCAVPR
T2 sequence (P08684 whole entry): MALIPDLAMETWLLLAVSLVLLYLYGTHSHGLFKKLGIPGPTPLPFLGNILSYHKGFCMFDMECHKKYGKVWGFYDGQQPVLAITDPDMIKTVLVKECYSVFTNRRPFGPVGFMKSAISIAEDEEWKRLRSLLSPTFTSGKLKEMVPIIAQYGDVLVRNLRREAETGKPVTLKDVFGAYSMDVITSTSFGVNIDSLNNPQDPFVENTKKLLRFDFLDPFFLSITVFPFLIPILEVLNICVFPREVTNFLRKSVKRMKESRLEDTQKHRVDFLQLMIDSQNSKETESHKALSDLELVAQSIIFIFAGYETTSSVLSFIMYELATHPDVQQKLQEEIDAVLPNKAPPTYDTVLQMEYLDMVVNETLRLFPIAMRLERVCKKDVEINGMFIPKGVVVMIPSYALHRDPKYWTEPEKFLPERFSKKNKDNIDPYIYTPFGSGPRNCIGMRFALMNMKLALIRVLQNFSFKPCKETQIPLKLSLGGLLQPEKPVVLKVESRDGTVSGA
Sequence of Cytochrome P450 2C9 (P11712 whole entry): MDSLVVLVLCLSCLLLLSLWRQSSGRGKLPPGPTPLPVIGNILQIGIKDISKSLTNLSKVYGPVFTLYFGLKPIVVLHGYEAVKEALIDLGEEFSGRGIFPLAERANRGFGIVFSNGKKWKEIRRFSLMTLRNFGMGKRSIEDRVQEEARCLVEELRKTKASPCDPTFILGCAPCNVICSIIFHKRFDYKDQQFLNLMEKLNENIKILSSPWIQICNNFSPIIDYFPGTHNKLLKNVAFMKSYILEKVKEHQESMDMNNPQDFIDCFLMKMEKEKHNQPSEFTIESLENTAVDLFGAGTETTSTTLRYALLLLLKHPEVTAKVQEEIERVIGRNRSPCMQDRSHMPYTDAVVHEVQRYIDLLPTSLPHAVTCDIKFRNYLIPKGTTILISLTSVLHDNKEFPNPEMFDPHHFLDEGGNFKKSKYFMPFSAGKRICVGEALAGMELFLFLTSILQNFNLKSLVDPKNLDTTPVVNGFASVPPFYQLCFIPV

SMILES | EC50 [2] | IC50 [3] | IC50 [4] | IC50 [5] | IC50 [6] | remaining at 10 min, 0.5 µM [7] | IC50 [8] | remaining at 10 min, 0.5 µM [10] | IC50 [11] | IC50 [12] | IC50 [13] | EC50 [14] | Activity [15] | IC50 at 72 h [1] | IC50 [9] | inhibition (INH) [9]
CCC[C@@H](CCO)Nc1nc(N)nc2cnn(Cc3ncc(C4CC5(C4)CN(C4CCOCC4)C5)cc3OC)c12 | 0.148 µM | > 20 µM | > 20 µM | > 20 µM | > 20 µM | 66% | > 20 µM | 77% | > 20 µM | > 20 µM | > 20 µM | 0.37 µM | – | > 25 µM | > 50 µM | –
CCC[C@@H](CCO)Nc1nc(N)nc2cnn(Cc3ncc(C4CCC5(CC4)CN(C(C)C)C5)cc3OC)c12 | 0.048 µM | > 20 µM | > 20 µM | > 20 µM | > 20 µM | 87% | > 20 µM | 88% | > 20 µM | > 20 µM | > 20 µM | 0.021 µM | – | > 25 µM | 13 µM | –
CCC[C@@H](CCO)Nc1nc(N)nc2cnn(Cc3ncc(C4CCN(C5CCN(C)CC5)CC4)cc3OC)c12 | – | > 20 µM | > 20 µM | > 20 µM | > 20 µM | 85% | > 20 µM | 99% | > 20 µM | > 20 µM | > 20 µM | – | inactive | > 25 µM | > 50 µM | –
CCC[C@@H](CCO)Nc1nc(N)nc2cnn(Cc3ncc(C4CCC5(CC4)CN(C4CCOCC4)C5)cc3OC)c12 | 0.029 µM | > 20 µM | > 20 µM | > 20 µM | > 20 µM | 50% | > 20 µM | 57% | > 20 µM | > 20 µM | > 20 µM | 0.012 µM | – | 18 µM | – | Not Active

Continued, in another order:

EC50 [2] | IC50 [3] | IC50 [4] | IC50 [5] | IC50 [6] | remaining at 10 min, 0.5 µM [7] | IC50 [8] | remaining at 10 min, 0.5 µM [10] | IC50 [11] | IC50 [12] | IC50 [13] | EC50 [14] | Activity [15] | SMILES | IC50 at 72 h [1] | IC50 [9] | inhibition (INH) [9]
0.177 µM | > 14 µM | > 14 µM | > 14 µM | > 14 µM | 44% | > 14 µM | 100% | > 14 µM | > 14 µM | > 14 µM | 0.133 µM | – | CCC[C@@H](CCO)Nc1nc(N)nc2cnn(Cc3ncc(C4CCC5(CC4)CNC5)cc3OC)c12 | > 25 µM | 14 µM | –
1.6 µM | > 17 µM | > 17 µM | > 17 µM | > 17 µM | 100% | > 17 µM | 87% | > 17 µM | > 17 µM | > 17 µM | 0.37 µM | – | CCC[C@@H](CCO)Nc1nc(N)nc2cnn(Cc3ncc(C4CC5(CNC5)C4)cc3OC)c12 | > 25 µM | > 50 µM | –
> 5 µM | 10.1 µM | > 20 µM | > 20 µM | > 20 µM | 30% | 10.1 µM | 97% | > 20 µM | > 20 µM | 17.6 µM | 0.461 µM | – | CCCCNc1nc(N)nc2c(C3CC3)nn(Cc3ncc(C4CCNCC4)cc3OC)c12 | 20 µM | – | Not Active
0.984 µM | > 20 µM | > 20 µM | > 20 µM | > 20 µM | 97% | > 20 µM | 100% | > 20 µM | > 20 µM | > 20 µM | 0.084 µM | – | CCCCNc1nc(N)nc2cnn(Cc3ncc(C4CCNCC4)cc3OC)c12 | > 25 µM | 19 µM | –
1.95 µM | > 20 µM | > 20 µM | > 20 µM | > 20 µM | 5% | > 20 µM | 100% | > 20 µM | > 20 µM | > 20 µM | 0.78 µM | – | CCCCNc1nc(N)nc2cnn(Cc3ccc(N4CCNCC4)cc3OC)c12 | 20 µM | – | Not Active
